The values that follow come from ChEMBL document CHEMBL1144413 (J Med Chem, 2005).

Data set [1] addresses T1, Aldo-keto reductase family 1 member A1 (Homo sapiens, UniProt P14550).
T1 sequence (P14550 whole entry): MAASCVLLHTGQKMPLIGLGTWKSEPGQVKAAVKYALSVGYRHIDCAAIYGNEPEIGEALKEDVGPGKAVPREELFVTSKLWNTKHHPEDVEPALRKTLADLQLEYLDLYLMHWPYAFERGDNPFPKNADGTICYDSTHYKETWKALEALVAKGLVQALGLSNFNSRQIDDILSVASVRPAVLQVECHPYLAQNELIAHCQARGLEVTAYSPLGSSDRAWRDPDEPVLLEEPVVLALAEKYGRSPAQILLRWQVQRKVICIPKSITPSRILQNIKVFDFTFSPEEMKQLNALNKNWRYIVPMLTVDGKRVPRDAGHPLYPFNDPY
Nature of the data set: In vitro inhibition of recombinant human aldehyde reductase.

Data set [2] deals with Aldo-keto reductase family 1 member B1 (Homo sapiens, UniProt P15121). Put plainly: In vitro inhibition of recombinant human aldose reductase expressed in Escherichia coli.
For data set [3], the system named is Rattus norvegicus. Put plainly: Improvement in sorbitol accumulation in 3 month diabetic rats (streptozotocin treated) done for 30 minutes at 22 degree C in dark by using sorbitol dehydrogenase at 5 mg/kg/day. The data set is classed as functional.
The species named for data set [4] is Rattus norvegicus.
Description: Sorbitol accumulation in 3 month diabetic rats (streptozotocin treated) done for 30 minutes at 22 degree C in dark by using sorbitol dehydrogenase at 5 mg/kg/day; BQL is Below quantifiable level
For data set [5], the species on record is Rattus norvegicus. The following applies: Plasma.
Description: Ability to lower elevated plasma triglyceride levels in diabetic rats (streptozotocin treated) model at 0.95 mg/kg/day
The nature of data set [6]: Maximum plasma concentration was determined in fasted rats after i.v. doses of 10 mg/kg/day. The following applies: rat, in vivo, iv. Also on record: dose 10 mg/kg/day, route intravenous. The data set is classed as ADME, organism-based.
For data set [7], the system named is Rattus norvegicus. Put plainly: Inhibition of sorbitol accumulation in lens of diabetic rats (streptozotocin treated) done for 30 minutes at 22 degree C in dark by using sorbitol dehydrogenase at 10 mg/kg/day. The data set is classed as functional. The following applies: Lens of camera-type eye, 0.5 h.
Data set [8] can be described thus: Maximum plasma concentration was determined in fasted rats after p.o. doses of 6 mg/kg/day. The following applies: rat, in vivo, po. The data set is classed as ADME, organism-based. Also on record: dose 6 mg/kg/day, route oral.
A short description of data set [9]: Volume of distribution was determined in fasted rats after i.v. doses of 10 mg/kg/day. Also on record: route intravenous. The following applies: rat, in vivo, iv. The data set is classed as ADME, organism-based.
Data set [10] is described as follows: Half-life was determined in fasted rats after p.o. doses of 6 mg/kg/day. The data set is classed as ADME, organism-based. Also on record: route oral. The following applies: rat, in vivo, po.
For data set [11], the species on record is Rattus norvegicus. This is another data set of the same source.
Description: Ability to lower elevated glucose levels in diabetic rats (streptozotocin treated) model at 1.4 mg/kg/day
A short description of data set [12]: Half-life was determined in nonfasted rats after p.o. doses of 6 mg/kg/day. The arrangement: route oral. The following applies: rat, in vivo, po. The data set is classed as ADME, organism-based.
Data set [13] is described as follows: Area under the concentration time curve 0-24 hr was determined in fasted rats after p.o. doses of 6 mg/kg/day. The data set is classed as ADME, organism-based. The arrangement: time < 24 hr, dose 6 mg/kg/day, route oral. The following applies: rat, in vivo, po.
Data set [14] deals with Rattus norvegicus. Nature of the data set: Myo-inositol accumulation in 3 month diabetic rats (streptozotocin treated) done for 30 minutes at 22 degree C in dark by using sorbitol dehydrogenase at 5 mg/kg/day. The data set is classed as functional.
For data set [15], the species on record is Rattus norvegicus. The following applies: Plasma. This is another data set of the same source.
Description: Ability to lower elevated plasma triglyceride levels in diabetic rats (streptozotocin treated) model at 1.4 mg/kg/day
For data set [16], the species on record is Rattus norvegicus. The source holds these as a separate data set.
Description: Ability to lower elevated glucose levels in diabetic rats (streptozotocin treated) model at 0.95 mg/kg/day
Data set [17] can be described thus: Time require to reach maximum plasma concentration was determined in nonfasted rats after p.o. doses of 6 mg/kg/day. The data set is classed as ADME, organism-based. Also on record: route oral. The following applies: rat, po.
Data set [18] deals with Rattus norvegicus. Put plainly: Improvement in fructose accumulation in 3 month diabetic rats (streptozotocin treated) done for 30 minutes at 22 degree C in dark by using sorbitol dehydrogenase at 5 mg/kg/day. The data set is classed as functional.
The species entered for data set [19] is Rattus norvegicus. The following applies: Plasma. The source holds these as a separate data set.
Description: Ability to lower elevated plasma triglyceride levels in diabetic rats (streptozotocin treated) model at 4.8 mg/kg/day
The species named for data set [20] is Rattus norvegicus. The following applies: Plasma. This is another data set of the same source.
Description: Ability to lower elevated plasma triglyceride levels in diabetic rats (streptozotocin treated) model at 0.48 mg/kg/day
Data set [21] in a line: Maximum plasma concentration was determined in nonfasted rats after p.o. doses of 6 mg/kg/day. The following applies: rat, in vivo, po. Also on record: dose 6 mg/kg/day, route oral. The data set is classed as ADME, organism-based.
The test system of data set [22] is Rattus norvegicus. Nature of the data set: Improvement in myo-inositol accumulation in 3 month diabetic rats (streptozotocin treated) done for 30 minutes at 22 degree C in dark by using sorbitol dehydrogenase at 5 mg/kg/day. The data set is classed as functional.
Data set [23] concerns Rattus norvegicus. Put plainly: Fructose accumulation in 3 month diabetic rats (streptozotocin treated) done for 30 minutes at 22 degree C in dark by using sorbitol dehydrogenase at 5 mg/kg/day. The data set is classed as functional.
Data set [24] is described as follows: Time require to reach maximum plasma concentration was determined in fasted rats after i.v. doses of 10 mg/kg/day. The data set is classed as ADME, organism-based. Also on record: route intravenous. The following applies: rat, iv.
The nature of data set [25]: Time require to reach maximum plasma concentration was determined in fasted rats after p.o. doses of 6 mg/kg/day. The data set is classed as ADME, organism-based. Also on record: route oral. The following applies: rat, po.
The species named for data set [26] is Rattus norvegicus. The following applies: Plasma. This is another data set of the same source.
Description: Ability to lower elevated plasma triglyceride levels in diabetic rats (streptozotocin treated) model at 1.9 mg/kg/day
The subject of data set [27] is Rattus norvegicus. Put plainly: Inhibition of sciatic nerve sorbitol accumulation in diabetic rats (streptozotocin treated) done for 30 minutes at 22 degree C in dark by using sorbitol dehydrogenase at 10 mg/kg/day. The data set is classed as functional. The following applies: 0.5 h.
The species named for data set [28] is Rattus norvegicus. The source holds these as a separate data set.
Description: Ability to lower elevated glucose levels in diabetic rats (streptozotocin treated) model at 0.48 mg/kg/day
The nature of data set [29]: Area under the concentration time curve 0-24 hr was determined in fasted rats after i.v. doses of 10 mg/kg/day. The data set is classed as ADME, organism-based. Also on record: time < 24 hr, dose 10 mg/kg/day, route intravenous. The following applies: rat, in vivo, iv.
For data set [30], the species on record is Rattus norvegicus. This is another data set of the same source.
Description: Ability to lower elevated glucose levels in diabetic rats (streptozotocin treated) model at 1.9 mg/kg/day
The nature of data set [31]: Total body clearance was determined in fasted rats after p.o. doses of 6 mg/kg/day. The data set is classed as ADME, organism-based. The arrangement: route oral. The following applies: rat, in vivo, po, read-out: ClT.
The species named for data set [32] is Rattus norvegicus. The source holds these as a separate data set.
Description: Ability to lower elevated glucose levels in diabetic rats (streptozotocin treated) model at 4.8 mg/kg/day
A short description of data set [33]: Area under the concentration time curve 0-24 h was determined in nonfasted rats after p.o. doses of 6 mg/kg/day. Also on record: dose 6 mg/kg/day, time < 24 hr, route oral. The following applies: rat, in vivo, po. The data set is classed as ADME, organism-based.
The nature of data set [34]: Total body clearance was determined in nonfasted rats after p.o. doses of 6 mg/kg/day. The data set is classed as ADME, organism-based. Also on record: route oral. The following applies: rat, in vivo, po, read-out: ClT.
The nature of data set [35]: Total body clearance was determined in fasted rats after i.v. doses of 10 mg/kg/day. The data set is classed as ADME, organism-based. Also on record: route intravenous. The following applies: rat, in vivo, iv, read-out: ClT.
The nature of data set [36]: Half-life was determined in fasted rats after i.v. doses of 10 mg/kg/day. The data set is classed as ADME, organism-based. The arrangement: route intravenous. The following applies: rat, in vivo, iv.

The term IC50 denotes the point on the concentration scale where inhibition reaches its midpoint. Regarding `O=C(O)Cn1cc(Cc2nc3cc(C(F)(F)F)ccc3s2)c2ccc(Br)cc21`, the IC50 in data set [1] was determined as 3.4 µM.
`O=C(O)Cn1cc(Cc2nc3cc(F)c(F)cc3s2)c2ccccc21`: the IC50 in data set [1] is 13 µM; in data set [2], 0.56 µM.
Take `O=C(O)Cn1cc(Cc2nc3ccc(Cl)cc3s2)c2ccccc21`: the IC50 in [1] was 2.1 µM.
Take `COc1ccc2c(c1)c(Cc1nc3c(F)c(F)cc(F)c3s1)cn2CC(=O)O`: in data set [2], the IC50 is 0.008 µM.
On to `O=C(O)Cn1cc(Cc2nc3c(F)c(F)cc(F)c3s2)c2cc(Br)ccc21`, for which the IC50 in data set [1] was 4.7 µM.
For `Cc1ccc2c(c1)c(Cc1nc3cc(C(F)(F)F)ccc3s1)cn2CC(=O)O`, the results for the IC50 in data set [1] and in data set [2] were 10.2 µM and 0.1 µM, respectively.
For the compound `O=C(O)Cn1cc(Cc2nc3c(F)cc(F)cc3s2)c2ccccc21`, the IC50 in data set [1] was determined as 5.1 µM; in data set [2], 0.69 µM.
Take `O=C(O)Cn1cc(Cc2nc3c(F)c(F)cc(F)c3s2)c2ccc(N3CCOCC3)cc21`: in data set [1], the IC50 worked out at 44 µM.
`Cc1ccc2c(Cc3nc4c(F)c(F)cc(F)c4s3)cn(CC(=O)O)c2c1`: the IC50 in [2] turned out to be 0.01 µM.
On to `O=C(O)Cn1cc(CCc2nc3c(F)c(F)cc(F)c3s2)c2ccccc21`, for which the IC50 in data set [1] worked out at 11 µM; in data set [2] it was 0.008 µM.
Take `CC(C(=O)O)n1cc(Cc2nc3c(F)c(F)cc(F)c3s2)c2ccccc21` (stereo not drawn): in [2], the IC50 is 0.163 µM.
The same measure, in the same setting: the same measure for `O=C(O)Cn1cc(C(=O)c2nc3c(F)c(F)cc(F)c3s2)c2ccccc21`: 1.6 µM.
In the case of `O=C(O)Cn1cc(Cc2nc3cc(F)ccc3s2)c2ccccc21`, the IC50 in data set [1] turned out to be 6.4 µM.
For the compound `O=C(O)Cn1cc(Cc2nc3ccc(F)cc3s2)c2ccccc21`, the IC50 in data set [2] was 1 µM.
For `O=C(O)Cn1cc(Cc2nc3c(F)c(F)cc(F)c3s2)c2ccc(-c3ccccc3)cc21`, the IC50 in data set [1] amounted to 6.1 µM.
For the compound `O=C(O)Cn1cc(Cc2nc3cccc(F)c3s2)c2ccccc21`, the values for the IC50 in [1] and in data set [2] were 18 µM and 0.055 µM, respectively.
On to `O=C(O)Cn1cc(Cc2nc3cc(C(F)(F)F)ccc3s2)c2cc(Cl)ccc21`, for which the IC50 was 4.9 µM in [1] and 0.13 µM in data set [2].
Taken in the same sequence, the figures for `O=C(O)Cn1cc(Cc2nc3c(F)cccc3s2)c2ccccc21` were 11 µM and 0.034 µM.
For orientation: inhibition in vivo means how much of the control response was suppressed. Read a low inhibition in vivo as a weak effect. What is called Vd is a proportionality between amount in the body and measured concentration, not a real space. Higher therefore signals extensive tissue distribution. One may read the half-life as the time needed for the level to fall by half in the phase considered. A high value points to slow decline. As usually defined, the Tmax is the time at which the peak concentration occurs. For `O=C(O)Cn1cc(Cc2nc3c(F)c(F)cc(F)c3s2)c2ccccc21` [LIDORESTAT], the Accumulation in [3] is listed as 100%; in data set [4], “Below quantifiable level”; in [14], 9.26 nM/mg of dry wt; in data set [18], 100%; in [22], 79%; in [23], 1.62 nM/mg of dry wt. Also, the Level in [5] worked out at 261 mg/dL; in [11], 427 mg/dL; in data set [15] it was 242 mg/dL; in data set [16] it was 430 mg/dL; in [19] it was 189 mg/dL; in data set [20], 301 mg/dL. Further, the Level turned out to be 218 mg/dL in [26], 432 mg/dL in [28], 440 mg/dL in data set [30] and 417 mg/dL in [32]. For the same compound, the Cmax in data set [6] worked out at 24 ug equiv/mL; in [8], 4.18 ug equiv/mL; in [21], 6.09 µg equiv/mL. In addition, the inhibition in vivo at 10 mg/kg/day in [7] is 77%; in data set [27] it was 100%. For the same compound, in data set [9], the volume of distribution (Vd) is 0.694 L/kg. The half-life in [10] is 5.61 h; in data set [12], 5.18 h; in data set [36], 5.04 h. The AUC in [13] is given as 43.5 ug equiv/h/mL; in data set [29], 97.1 ug equiv/h/mL; in [33], 72.8 ug equiv/h/mL. The figures for the Tmax in data set [17], in [24] and in [25] were 5 h, 4.8 min and 3.5 h, respectively. The CL/F was determined as 2.24 mL/min/kg in [31] and 1.37 mL/min/kg in data set [34]. Besides, the clearance in data set [35] amounted to 1.7 mL/min/kg.
Take `COc1ccc2c(C(=S)N(C)CC(=O)O)cccc2c1C(F)(F)F` [TOLRESTAT]: the values for the inhibition in vivo at 10 mg/kg/day in data set [7] and in [27] were 7% and 27%, respectively.
On to `O=C(O)Cn1c(=O)n(Cc2ccc(Br)cc2F)c(=O)c2ccc(Cl)cc21` [ZENARESTAT], for which the inhibition in vivo at 10 mg/kg/day in data set [7] came out at 2%; in [27] it was 64%. Also, the IC50 in data set [1] was 9.9 µM; in data set [2], 0.008 µM.
As to `O=C(O)Cc1nn(Cc2nc3cc(C(F)(F)F)ccc3s2)c(=O)c2ccccc12` [ZOPOLRESTAT], the inhibition in vivo at 10 mg/kg/day in [7] was determined as 9%; in data set [27] it was 80%. The IC50 in [1] amounted to 38.6 µM.
